Data published in PubChem BioAssay AID330 (DTP/NCI, 2004).
Several values for one entry are separate records, joined by “and”; a condition that tells them apart may be missing. Equal values may be shown once. Toxic doses and inconclusive results are not listed.

Test system: P388 leukemia ip, CD2F1 mice, survival T/C
Experiment: NCI In Vivo Anticancer Drug Screen. Data for tumor model P388 Leukemia (intraperitoneal) in CD2F1 (CDF1) mice
Settings: endpoint: median survival time, higher = longer survival
Summary of the method: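 Mice carrying the transplanted tumor received test compound or vehicle. Survival was recorded in each group, and the value is the treated-group measurement divided by that of the vehicle-treated control group.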

[1] = dose: 50.0 mg/kg/injection, schedule: Q01DX005 (ip), vehicle: Klucel (hydroxypropylcellulose) (HPC)
[2] = dose: 100.0 mg/kg/injection, schedule: Q01DX005 (ip), vehicle: Klucel (hydroxypropylcellulose) (HPC)
[3] = dose: 200.0 mg/kg/injection, schedule: Q01DX005 (ip), vehicle: Klucel (hydroxypropylcellulose) (HPC)
[4] = dose: 6.25 mg/kg/injection, schedule: Q01DX009 (ip), vehicle: saline with Tween-80
[5] = dose: 60.0 mg/kg/injection, schedule: Q01DX005 (ip), vehicle: saline
[6] = dose: 120.0 mg/kg/injection, schedule: Q01DX005 (ip), vehicle: saline
[7] = dose: 25.0 mg/kg/injection, schedule: Q01DX009 (ip), vehicle: saline

## O=c1oc(-c2ccccc2)nc2c1sc1nc(-c3ccccc3)oc(=O)c12
dose: 1.56 mg/kg/injection, schedule: Q01DX005 (ip), vehicle: Klucel (hydroxypropylcellulose) (HPC)
  T/C: 93 % of control
dose: 3.12 mg/kg/injection, schedule: Q01DX005 (ip), vehicle: Klucel (hydroxypropylcellulose) (HPC)
  T/C: 101 % of control and 91 % of control and 96 % of control
dose: 6.25 mg/kg/injection, schedule: Q01DX005 (ip), vehicle: Klucel (hydroxypropylcellulose) (HPC)
  T/C: 87 % of control and 88 % of control and 89 % of control
[1]
  T/C: 88 % of control and 92 % of control

## COc1ccc2ncc(COC(=O)NCCCl)c(COC(=O)NCCCl)c2c1
dose: 25.0 mg/kg/injection, schedule: Q01DX005 (ip), vehicle: Klucel (hydroxypropylcellulose) (HPC)
  T/C: 92 % of control
[1]
  T/C: 86 % of control
[2]
  T/C: 88 % of control
[3]
  T/C: 86 % of control

## CC(=O)C1=CC(C)(C)OC1=O
dose: 100.0 mg/kg/injection, schedule: Q04DX002 (ip), vehicle: saline with Tween-80
  T/C: 103 % of control
dose: 200.0 mg/kg/injection, schedule: Q04DX002 (ip), vehicle: saline with Tween-80
  T/C: 109 % of control

## CCCC(=O)NC1=C(N2CC2)C(=O)C(NC(=O)CCC)=C(N2CC2)C1=O
dose: 0.13 mg/kg/injection, schedule: Q01DX009 (ip), vehicle: saline with Tween-80
  T/C: 120 % of control
dose: 0.2 mg/kg/injection, schedule: Q01DX009 (ip), vehicle: saline with Tween-80
  T/C: 118 % of control
dose: 0.44 mg/kg/injection, schedule: Q01DX009 (ip), vehicle: saline with Tween-80
  T/C: 112 % of control
dose: 1.0 mg/kg/injection, schedule: Q01DX009 (ip), vehicle: saline with Tween-80
  T/C: 157 % of control
dose: 1.56 mg/kg/injection, schedule: Q01DX009 (ip), vehicle: saline with Tween-80
  T/C: 181 % of control
dose: 2.5 mg/kg/injection, schedule: Q04DX003 (ip), vehicle: saline with Tween-80
  T/C: 159 % of control
dose: 3.13 mg/kg/injection, schedule: Q04DX003 (ip), vehicle: saline with Tween-80
  T/C: 154 % of control
dose: 5.0 mg/kg/injection, schedule: Q04DX003 (ip), vehicle: saline with Tween-80
  T/C: 200 % of control
[4]
  T/C: 86 % of control
dose: 6.25 mg/kg/injection, schedule: Q04DX003 (ip), vehicle: saline with Tween-80
  T/C: 227 % of control
dose: 12.5 mg/kg/injection, schedule: Q04DX003 (ip), vehicle: saline with Tween-80
  T/C: 104 % of control

## CC(=O)Nc1ccc(/C=N/NC(=O)COc2ccccc2)cc1
[5]
  T/C: 100 % of control
[6]
  T/C: 100 % of control
dose: 240.0 mg/kg/injection, schedule: Q01DX005 (ip), vehicle: saline
  T/C: 100 % of control

## COc1cc(C2OC(=O)c3ccccc3S2)ccc1O (centres undefined)
dose: 6.25 mg/kg/injection, schedule: Q01DX009 (ip), vehicle: Klucel (hydroxypropylcellulose) (HPC)
  T/C: 114 % of control
dose: 12.5 mg/kg/injection, schedule: Q01DX009 (ip), vehicle: Klucel (hydroxypropylcellulose) (HPC)
  T/C: 110 % of control and 119 % of control
dose: 25.0 mg/kg/injection, schedule: Q01DX009 (ip), vehicle: Klucel (hydroxypropylcellulose) (HPC)
  T/C: 114 % of control and 120 % of control
dose: 50.0 mg/kg/injection, schedule: Q01DX009 (ip), vehicle: Klucel (hydroxypropylcellulose) (HPC)
  T/C: 106 % of control
dose: 100.0 mg/kg/injection, schedule: Q01DX009 (ip), vehicle: Klucel (hydroxypropylcellulose) (HPC)
  T/C: 118 % of control

## O=c1c(I)cn(CC(O)CO)c(=O)n1CC(O)CO (centres undefined)
[1]
  T/C: 95 % of control
[2]
  T/C: 100 % of control
[3]
  T/C: 86 % of control

## NC(=O)Cn1ccnc1[N+](=O)[O-]
dose: 12.5 mg/kg/injection, schedule: Q01DX009 (ip), vehicle: water
  T/C: 93 % of control
dose: 25.0 mg/kg/injection, schedule: Q01DX009 (ip), vehicle: water
  T/C: 99 % of control
dose: 50.0 mg/kg/injection, schedule: Q01DX009 (ip), vehicle: water
  T/C: 90 % of control
dose: 100.0 mg/kg/injection, schedule: Q01DX009 (ip), vehicle: water
  T/C: 118 % of control
dose: 200.0 mg/kg/injection, schedule: Q01DX009 (ip), vehicle: water
  T/C: 107 % of control

## O=C1C(CCl)=CS(=O)(=O)c2ccccc21
dose: 6.25 mg/kg/injection, schedule: Q01DX009 (ip), vehicle: saline
  T/C: 109 % of control
dose: 12.5 mg/kg/injection, schedule: Q01DX009 (ip), vehicle: saline
  T/C: 116 % of control
[7]
  T/C: 100 % of control

## COc1cccc2c1-c1nc(N)c3c(OC)cccc3c1C2=O
dose: 100.0 mg/kg/injection, schedule: Q04DX002 (ip), vehicle: Klucel (hydroxypropylcellulose) (HPC)
  T/C: 106 % of control
dose: 200.0 mg/kg/injection, schedule: Q04DX002 (ip), vehicle: Klucel (hydroxypropylcellulose) (HPC)
  T/C: 108 % of control
dose: 400.0 mg/kg/injection, schedule: Q04DX002 (ip), vehicle: Klucel (hydroxypropylcellulose) (HPC)
  T/C: 107 % of control

## C=C1C2(C(=O)O)CCC(C2)C1(C)C (centres undefined)
dose: 50.0 mg/kg/injection, schedule: Q01DX005 (ip), vehicle: saline with Tween-80
  T/C: 105 % of control
dose: 100.0 mg/kg/injection, schedule: Q01DX005 (ip), vehicle: saline with Tween-80
  T/C: 101 % of control
dose: 200.0 mg/kg/injection, schedule: Q01DX005 (ip), vehicle: saline with Tween-80
  T/C: 111 % of control

## C(=C\c1ccc2ccccc2n1)/c1ccc2c(c1)OCO2
dose: 100.0 mg/kg/injection, schedule: Q01DX009 (ip), vehicle: saline with Tween-80
  T/C: 105 % of control
dose: 200.0 mg/kg/injection, schedule: Q01DX009 (ip), vehicle: saline with Tween-80
  T/C: 95 % of control
dose: 400.0 mg/kg/injection, schedule: Q01DX009 (ip), vehicle: saline with Tween-80
  T/C: 110 % of control

## CCOC(=O)C1=C(C)N[C@@H](c2ccccc2[N+](=O)[O-])N[C@H]1c1ccccc1[N+](=O)[O-]
[1]
  T/C: 101 % of control
[2]
  T/C: 101 % of control
[3]
  T/C: 92 % of control

## COC(C)(C)c1ccccc1[S+]1OC(C)(C)c2ccccc21 (centres undefined)
dose: 100.0 mg/kg/injection, schedule: Q04DX002 (ip), vehicle: suspension in saline
  T/C: 96 % of control
dose: 200.0 mg/kg/injection, schedule: Q04DX002 (ip), vehicle: suspension in saline
  T/C: 100 % of control
dose: 400.0 mg/kg/injection, schedule: Q04DX002 (ip), vehicle: suspension in saline
  T/C: 109 % of control

## COC(=O)c1ccc(N=NN(C)C)cc1
[7]
  T/C: 100 % of control and 97 % of control
dose: 25.0 mg/kg/injection, schedule: Q01DX009 (ip), vehicle: suspension in saline
  T/C: 103 % of control
dose: 50.0 mg/kg/injection, schedule: Q01DX009 (ip), vehicle: saline
  T/C: 113 % of control and 92 % of control
dose: 50.0 mg/kg/injection, schedule: Q01DX009 (ip), vehicle: suspension in saline
  T/C: 91 % of control
dose: 100.0 mg/kg/injection, schedule: Q01DX009 (ip), vehicle: saline
  T/C: 103 % of control and 94 % of control
dose: 200.0 mg/kg/injection, schedule: Q01DX009 (ip), vehicle: saline
  T/C: 108 % of control
dose: 200.0 mg/kg/injection, schedule: Q01DX009 (ip), vehicle: suspension in saline
  T/C: 101 % of control

## CSc1nc(C)c(Br)c(Nc2ccc(C(N)=O)cc2)n1
dose: 3.13 mg/kg/injection, schedule: Q01DX009 (ip), vehicle: saline with Tween-80
  T/C: 102 % of control
[4]
  T/C: 94 % of control
dose: 12.5 mg/kg/injection, schedule: Q01DX009 (ip), vehicle: saline with Tween-80
  T/C: 96 % of control
dose: 25.0 mg/kg/injection, schedule: Q01DX009 (ip), vehicle: saline with Tween-80
  T/C: 94 % of control

## CN(C)C1C(O)C2Oc3c(cc(O)c4c3C(=O)c3cc5c(c(O)c3C4=O)CCC(C)(O)C5)C(C)(O2)C1O (centres undefined)
dose: 12.5 mg/kg/injection, schedule: Q04DX003 (ip), vehicle: other
  T/C: 112 % of control
dose: 25.0 mg/kg/injection, schedule: Q04DX003 (ip), vehicle: other
  T/C: 113 % of control
dose: 50.0 mg/kg/injection, schedule: Q04DX003 (ip), vehicle: other
  T/C: 118 % of control
dose: 100.0 mg/kg/injection, schedule: Q04DX003 (ip), vehicle: other
  T/C: 122 % of control

## CCCCCCCCCCCC(=O)OCCN(C=O)C[n+]1ccccc1
dose: 25.0 mg/kg/injection, schedule: Q04DX002 (ip), vehicle: saline
  T/C: 98 % of control
dose: 50.0 mg/kg/injection, schedule: Q04DX002 (ip), vehicle: saline
  T/C: 96 % of control
dose: 100.0 mg/kg/injection, schedule: Q04DX002 (ip), vehicle: saline
  T/C: 91 % of control

## Cc1ccc(C)c(CN(CCO)CCO)c1
[5]
  T/C: 109 % of control
[6]
  T/C: 102 % of control

## NC(=S)NC1OC(COC(=O)c2ccccc2)C(OC(=O)c2ccccc2)C1OC(=O)c1ccccc1 (centres undefined)
dose: 25.0 mg/kg/injection, schedule: Q04DX003 (ip), vehicle: saline with Tween-80
  T/C: 98 % of control
dose: 50.0 mg/kg/injection, schedule: Q04DX003 (ip), vehicle: saline with Tween-80
  T/C: 107 % of control
dose: 100.0 mg/kg/injection, schedule: Q04DX003 (ip), vehicle: saline with Tween-80
  T/C: 100 % of control
dose: 200.0 mg/kg/injection, schedule: Q04DX003 (ip), vehicle: saline with Tween-80
  T/C: 106 % of control
